Results as given in EPA's ToxRefDB 2.

Legend:
rat [1] = settings: Multigenerational reproductive toxicity study, other, Oral, Water, dose end: 2 generation
rabbit [2] = settings: Prenatal developmental toxicity study, new zealand white, Oral, Gavage/Intubation, dose end: 27 GD, group: maternal
dog = settings: Sub-acute repeat dose toxicity, beagle, Oral, Water, dose end: 28 day, group: systemic
rat [3] = settings: Combined chronic toxicity/carcinogenicity, sprague dawley, Oral, Water, dose end: 104 week, group: systemic
rabbit [4] = settings: Prenatal developmental toxicity study, new zealand white, Oral, Gavage/Intubation, dose end: 19 GD
rat [5] = settings: Multigenerational reproductive toxicity study, sprague dawley, Oral, Water, dose end: 2 generation
[6] = group: offspring, systemic / in life observation / body weight / offspring (pup) weight + systemic / organ weight / kidney / absolute + systemic / organ …
[7] = group: parental, systemic / in life observation / water consumption / water consumption
[8] = group: parental, systemic / in life observation / water consumption / water consumption + systemic / in life observation / body weight / body weight + …
[9] = group: reproductive, reproductive / reproductive performance / fertility / fertility
[10] = systemic / in life observation / body weight / body weight + systemic / in life observation / food consumption / food consumption + systemic…
[11] = systemic / pathology microscopic / nose / inflammation
[12] = systemic / pathology microscopic / nose / inflammation + systemic / pathology microscopic / stomach / hypertrophy
[13] = systemic / in life observation / water consumption / water consumption
[14] = group: developmental, developmental / developmental malformation / aortic arch / dilated + developmental / developmental malformation / bone / [other] + …
[15] = group: maternal, systemic / in life observation / body weight / body weight gain + systemic / in life observation / clinical signs / defecation + systemic / …
[16] = group: offspring, reproductive / offspring survival early / dead fetuses / dead fetuses + reproductive / offspring survival early / live fetuses / live …
[17] = group: parental, systemic / in life observation / food consumption / food consumption + systemic / in life observation / water consumption / water …
[18] = group: reproductive, reproductive / reproductive performance / dystocia / dystocia
[19] = group: reproductive, reproductive / reproductive performance / dystocia / dystocia + reproductive / reproductive performance / postimplantation loss / …

Compound: O=[N+]([O-])C(Br)(CO)CO [Bronopol]
- NEL (rat [1]; group: offspring, systemic / in life observation / body weight / offspring (pup) weight): 70 mg/kg/day
- LEL (rat [1]; [6]): 200 mg/kg/day
- LOAEL (rat [1]; [6]): > 200 mg/kg/day
- NOAEL (rat [1]; [6]): ≥ 200 mg/kg/day
- LEL (rat [1]; [7]): 25 mg/kg/day
- NEL (rat [1]; [7]): < 25 mg/kg/day
- LOAEL (rat [1]; [8]): > 200 mg/kg/day
- NOAEL (rat [1]; [8]): ≥ 200 mg/kg/day
- LEL (rat [1]; [9]): 200 mg/kg/day
- LOAEL (rat [1]; [9]): > 200 mg/kg/day
- NEL (rat [1]; [9]): 70 mg/kg/day
- NOAEL (rat [1]; [9]): ≥ 200 mg/kg/day
- LOAEL (rabbit [2]; systemic / in life observation / body weight / body weight + systemic / in life observation / food consumption / food consumption): 40 mg/kg/day
- LEL (rabbit [2]; [10]): 40 mg/kg/day
- NEL (rabbit [2]; [10]): 10 mg/kg/day
- NOAEL (rabbit [2]; [10]): 10 mg/kg/day
- LEL (dog; [11]): 4.1 mg/kg/day
- NEL (dog; [11]): < 4.1 mg/kg/day
- LOAEL (dog; [12]): > 32.6 mg/kg/day
- NOAEL (dog; [12]): ≥ 32.6 mg/kg/day
- LEL (rat [3]; [13]): 10 mg/kg/day
- NEL (rat [3]; [13]): < 10 mg/kg/day
- LOAEL (rat [3]; systemic / in life observation / water consumption / water consumption + systemic / in life observation / body weight / body weight gain + …): 40 mg/kg/day
- NOAEL (rat [3]; systemic / in life observation / water consumption / water consumption + systemic / pathology microscopic / stomach / squamous cell …): 10 mg/kg/day
- LEL (rabbit [4]; [14]): 80 mg/kg/day
- LOAEL (rabbit [4]; [14]): 80 mg/kg/day
- NEL (rabbit [4]; [14]): 40 mg/kg/day
- NOAEL (rabbit [4]; [14]): 40 mg/kg/day
- LEL (rabbit [4]; [15]): 80 mg/kg/day
- LOAEL (rabbit [4]; [15]): 80 mg/kg/day
- NEL (rabbit [4]; [15]): 40 mg/kg/day
- NOAEL (rabbit [4]; [15]): 40 mg/kg/day
- LEL (rat [5]; [16]): 150 mg/kg/day
- LOAEL (rat [5]; [16]): 150 mg/kg/day
- NEL (rat [5]; [16]): 50 mg/kg/day
- NOAEL (rat [5]; [16]): 50 mg/kg/day
- LEL (rat [5]; [17]): 50 mg/kg/day
- LOAEL (rat [5]; [17]): 50 mg/kg/day
- NEL (rat [5]; [17]): 10 mg/kg/day
- NOAEL (rat [5]; [17]): 10 mg/kg/day
- NEL (rat [5]; [18]): 50 mg/kg/day
- NOAEL (rat [5]; [18]): 50 mg/kg/day
- LEL (rat [5]; [19]): 150 mg/kg/day
- LOAEL (rat [5]; [19]): 150 mg/kg/day
